Legend:
[1] = solubility of testosterone in water and in ethanol; assay type: physicochemical; conditions: ethanol relative to water
Excerpt: During use, IDD 100 can be used to administer API 200 by inserting IDD 100 into an area of a human anatomy, including for example, subcutaneously. With IDD 100 inserted into the desired anatomical area, portions of solubilizer 210 (with dissolved API 200) that are small enough to pass through channeled member 130 can be released over time into the area of the human anatomy or for systemic circulation. In certain embodiments, the solubility enhancement of API 200 and solubilizer 210 can range from approximately 2×, 3×, 4×, 5×, 6×, 7×, 8×, 9×, 10×, 11×, 12×, 13×, 14×, 15×, 16×, 17×, 18×, 19×, 20×, 21×, 22×, 23×, 24×, 25×, 26×, 27×, 28×, 29×, 30× or higher. In particular embodiments, the solubility enhancement can be up to 1000× and higher.

[2] = cited from earlier work

SMILES: C[C@]12CC[C@H]3[C@@H](CCC4=CC(=O)CC[C@@]43C)[C@@H]1CC[C@@H]2O [testosterone]
- solubility enhancement (increase, ethanol vs water) [1]: 20,000 ×
- solubility in ethanol ([2]; ethanol): approximately 750 mg/ml
- native water solubility ([2]; water): 35 µg/mL

Source: patent US10369340B2, “Device and method for sustained release of low water solubility therapeutic agent in solubilizer” (N[…], INC., priority 2013, dated 2019)
